The text below walks through data of patent US4503236A, “Antiallergic 4Hfuro[3,2-b]indoles” (Warner-Lambert Company, priority 1983, dated 1985).

SMILES strings stand for the structures.

The test system of the first experiment is Trachea and lungs (ovalbumin-sensitized guinea pig tissue, antigen challenge). Nature of the experiment: modified Shultz-Dale procedure: inhibition of antigen-induced contraction of isolated trachea and lung from ovalbumin-immunized guinea pigs. To be noted: 3 × 10^-5 M; isolated guinea pig tissue (trachea/lung not distinguished), antigen challenge 10 min after drug. The experiment is classed as cell-based. The protocol:
The compounds of the invention display antiallergic properties when tested by the following procedure [modification of Shultz-Dale procedure, Agents and Actions, 8, 171 (1978)]: Guinea pigs, after one week environmental stabilization, are immunized IP with 1 mg crude ovalbumin (OA) in 1 ml saline with 50% complete Freund's Adjuvant (CFA). Twenty-one days later animals are killed by a blow to the head. Trachea and lungs are removed and placed in Tyrode's solution, pH 7.4, aerated with 5% CO2 in O2.
Trachea: Connective and vascular tissue are removed and a wooden stick is inserted in the lumen. One end of the trachea is fixed with a pin. The stick is held against a surgical blade and rotated in a helical manner. Spirals formed are cut into two lengths, each containing two or more bands of transverse strips of tracheal muscle. The tissue is attached to transducers and maintained at 5 g tension. Sensitivity of the preamplifier is 2.0 mv/cm and of the amplifier, 0.02 mv/cm, with calibration of 20 mg force displacement per mm. After 45 minutes equilibration, the tissue is challenged with antigen.
Lung: The heart and lung are removed as a unit and the lung is perfused with buffer by the spontaneously beating heart for several minutes. Distal strips of lung from the diaphragmatic lobe approximately 0.3 cm wide and 3 cm long are removed and attached to transducers. Preload is 0.3 g of tension with sensitivity at 0.02 mv/cm on the amplifier and 0.5 mv/cm on the preamp and calibration of 1 mm=5 mg force displacement.
Test Design for Evaluation of Drugs: All tissues are challenged repetitively with the same concentration of antigen. After each concentration, the tissue is washed and allowed to stabilize. The original baseline tension is reestablished before the next challenge. Control contractions in lung must develop a minimum of 10 mg and in trachea, a minimum of 40 mg tension above baseline. When the contractions are reproducible, drug is introduced. Drug effects of baseline are monitored. Ten minutes later, after readjustment to baseline tension as indicated by consecutive reading one minute apart, tissue is again challenged with antigen. The concentration is monitored for at least 15 minutes and the tissue is washed free of antigen and drug. […] Tissues are not used again. If inhibition takes place, a final antigen challenge is repeated to establish that the tissue is reactive to antigen.
By % Inhibition is commonly meant the share of the control response that was lost under treatment. Regarding `CCOc1c(C(=O)Nc2nnn[nH]2)oc2c3ccccc3n(-c3ccccc3)c12` [H, C6 H5, C2 H5,, 3-Ethoxy-4-phenyl-N(1H-tetrazol-5-yl)-4H-furo[3,2-b]-indole-2-carboxamide], the “% Inhibition” value stood at 100%.

Still in this experiment, the particulars now being: Cavia porcellus, 10 min; 3 × 10^-5 M; isolated guinea pig tissue (trachea/lung not distinguished), antigen challenge 10 min after drug.
For orientation: inhibition means the relative decrease from the control value, in per cent. Take `COc1c(C(=O)Nc2nnn[nH]2)oc2c3ccccc3n(C)c12` [H, CH3, CH3,, 3-Methoxy-4-methyl-N-(1H-tetrazol-5-yl)-4H-furo[3,2-b]indole-2-carboxamide]: the inhibition at 30 µM is 38%.

On to `COc1c(C(=O)Nc2nnn[nH]2)oc2c3ccccc3n(-c3ccccc3)c12` [H, C6 H5, CH3,, 3-Methoxy-4-phenyl-N-(1H-tetrazol-5-yl)-4H-furo[3,2-b]indole-2-carboxamide], for which the inhibition at 30 µM is 100%.

Regarding `COc1ccc2c(c1)c1oc(C(=O)O)c(OC)c1n2-c1ccccc1` [CH3 O, C6 H5, CH3, COOH, 3,7-Dimethoxy-4-phenyl-4H-furo[3,2-b]indole-2-carboxylic acid], the inhibition at 30 µM turned out to be 100%.

As to `COc1c(C(=O)O)oc2c3ccccc3n(-c3ccccc3)c12` [H, C6 H5, CH3, COOH, 3-Methoxy-4-phenyl-4H-furo[3,2-b]indole-2-carboxylic acid], the inhibition at 30 µM was 100%.

Consider `CCOc1c(C(=O)O)oc2c3ccccc3n(-c3ccccc3)c12` [H, C6 H5, C2 H5, COOH, 3-Ethoxy-4-phenyl-4H-furo[3,2-b]indole-2-carboxylic acid], for which the inhibition at 30 µM was determined as 100%.

For the compound `CCOc1c(C(=O)O)oc2c3cc(OC)ccc3n(-c3ccccc3)c12` [CH3 O, C6 H5, C2 H5, COOH, 3-Ethoxy-7-methoxy-4-phenyl-4H-furo[3,2-b]indole-2-carboxylic acid], the inhibition at 30 µM came out at 100%.

Turning to `COc1ccc2c(c1)c1oc(-c3nnn[nH]3)c(OC)c1n2-c1ccccc1` [CH3 O, C6 H5, CH3,, 3,7-Dimethoxy-4-phenyl-2-(1H-tetrazol-5-yl)-4H-furo[3,2-b]indole], the inhibition at 30 µM was determined as 100%.

Regarding `COc1ccc2c(c1)c1oc(C(=O)Nc3nnn[nH]3)c(OC)c1n2-c1ccccc1` [CH3 O, C6 H5, CH3,, 3,7-Dimethoxy-4-phenyl-N-(1H-tetrazol-5-yl)-4H-furo[3,2-b]indole-2-carboxamide], the inhibition at 30 µM was 100%.

Regarding `CCOc1c(C(=O)Nc2nnn[nH]2)oc2c3cc(OC)ccc3n(-c3ccccc3)c12` [CH3 O, C6 H5, C2 H5,, 3-Ethoxy-7-methoxy-4-phenyl-N-(1H-tetrazol-5-yl)-4H-furo[3,2-b]indole-2-carboxamide], the inhibition at 30 µM amounted to 100%.

For the compound `COc1c(-c2nnn[nH]2)oc2c3ccccc3n(C)c12` [H, CH3, CH3,, 3-Methoxy-4-methyl-2-(1H-tetrazol-5-yl)-4H-furo[3,2-b]indole], the inhibition at 30 µM stood at 26%.

Consider `CCOc1c(-c2nnn[nH]2)oc2c3ccccc3n(-c3ccccc3)c12` [H, C6 H5, C2 H5,, 3-Ethoxy-4-phenyl-2(1H-tetrazol-5-yl)-4H-furo[3,2-b]indole], for which the inhibition at 30 µM was 100%.
